Reference: patent US12310975B2, “Modulators of BCL6 proteolysis and associated methods of use” (Arvinas Operations, Inc., priority 2019, dated 2025)

molecular target: BCL6 (Homo sapiens (Human), UniProt P41182); assay: Immunofluorescence high content imaging of BCL6 degradation in T47D cells; type: cell-based; conditions: not given
Method in brief: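 T47D cells were treated 3 days at 37 °C with an 11-point 3-fold dilution series (top 0.1 or 1 μM), then fixed, permeabilized and immunostained for BCL6 with Alexa-488 secondary, CellMask and Hoechst. BCL6 signal was imaged at 10×, 4 fields/well, with top-hat smoothing.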

IC50 [nM] | SMILES
< 10 | CCn1c(=O)c(OCC(=O)NC)cc2cc(Nc3nc(N4CCN(CC5CCN(c6cccc7c6C(=O)N(C6CCC(=O)NC6=O)C7=O)CC5)CC4)ncc3Cl)ccc21 (centres unmarked) [compound 310, 2-{[6-({5-chloro-2-[4-({1-[2-(2,6-dioxopiperidin-3-yl)-1,3-dioxo-2,3-dihydro-1H-isoindol-4-yl]piperidin-4-yl}methyl)piperazin-1-yl]pyrimidin-4-yl}amino)-1-ethyl-2-oxo-1,2-dihydroquinolin-3-yl]oxy}-N-methylacetamide]
< 10 | CNC(=O)CNc1cc2cc(Nc3nc(N4CCN(CC5CCN(c6ccc7c(c6)C(=O)N(C6CCC(=O)NC6=O)C7=O)CC5)CC4)ncc3Cl)ccc2n(C)c1=O (centres unmarked) [compound 262, 2-((6-((5-chloro-2-(4-((1-(2-(2,6-dioxopiperidin-3-yl)-1,3-dioxoisoindolin-5-yl)piperidin-4-yl)methyl)piperazin-1-yl)pyrimidin-4-yl)amino)-1-methyl-2-oxo-1,2-dihydroquinolin-3-yl)amino)-N-methylacetamide]
≥ 100 | Cn1c(=O)c(-c2nnc[nH]2)cc2cc(Nc3nc(N4CCC(CN5CCN(c6ccc7c(c6)C(=O)N(C6CCC(=O)NC6=O)C7=O)CC5)CC4)ncc3Cl)ccc21 (centres unmarked) [compound 282, 5-(4-{[1-(5-chloro-4-{[1-methyl-2-oxo-3-(4H-1,2,4-triazol-3-yl)-1,2-dihydroquinolin-6-yl]amino}pyrimidin-2-yl)piperidin-4-yl]methyl}piperazin-1-yl)-2-(2,6-dioxopiperidin-3-yl)-2,3-dihydro-1H-isoindole-1,3-dione]

same assay, conditions: T47D

Dmax [%] | SMILES
50 to 70 | CNC(=O)COc1cc2cc(Nc3nc(N4CCC(C5(N6CCC(c7ccc8c(c7)C(=O)N(C7CCC(=O)NC7=O)C8=O)CC6)CC5)CC4)ncc3Cl)ccc2n(C)c1=O (centres unmarked) [compound 482, 2-{[6-({5-chloro-2-[4-(1-{4-[2-(2,6-dioxopiperidin-3-yl)-1,3-dioxo-2,3-dihydro-1H-isoindol-5-yl]piperidin-1-yl}cyclopropyl)piperidin-1-yl]pyrimidin-4-yl}amino)-1-methyl-2-oxo-1,2-dihydroquinolin-3-yl]oxy}-N-methylacetamide]
50 to 70 | CCn1c(=O)c(OCC(=O)NC)cc2cc(Nc3nc(N4CCN(CC5CCN(c6cccc7c6C(=O)N(C6CCC(=O)NC6=O)C7=O)CC5)CC4)ncc3Cl)ccc21 (centres unmarked) [compound 310, 2-{[6-({5-chloro-2-[4-({1-[2-(2,6-dioxopiperidin-3-yl)-1,3-dioxo-2,3-dihydro-1H-isoindol-4-yl]piperidin-4-yl}methyl)piperazin-1-yl]pyrimidin-4-yl}amino)-1-ethyl-2-oxo-1,2-dihydroquinolin-3-yl]oxy}-N-methylacetamide]
≥ 70 | CNC(=O)CNc1cc2cc(Nc3nc(N4CCN(CC5CCN(c6ccc7c(c6)C(=O)N(C6CCC(=O)NC6=O)C7=O)CC5)CC4)ncc3Cl)ccc2n(C)c1=O (centres unmarked) [compound 262, 2-((6-((5-chloro-2-(4-((1-(2-(2,6-dioxopiperidin-3-yl)-1,3-dioxoisoindolin-5-yl)piperidin-4-yl)methyl)piperazin-1-yl)pyrimidin-4-yl)amino)-1-methyl-2-oxo-1,2-dihydroquinolin-3-yl)amino)-N-methylacetamide]

same assay, conditions: T47D cells

Dmax [%] | IC50 [nM] | SMILES
≥ 70 |  | CNC(=O)COc1cc2cc(Nc3nc(N4CCN(CC5CCN(c6cc(OC)cc7c6C(=O)N(C6CCC(=O)NC6=O)C7=O)CC5)CC4)ncc3Cl)ccc2n(C(C)C)c1=O (centres unmarked) [compound 414, 2-{[6-({5-chloro-2-[4-({1-[2-(2,6-dioxopiperidin-3-yl)-6-methoxy-1,3-dioxo-2,3-dihydro-1H-isoindol-4-yl]piperidin-4-yl}methyl)piperazin-1-yl]pyrimidin-4-yl}amino)-2-oxo-1-(propan-2-yl)-1,2-dihydroquinolin-3-yl]oxy}-N-methylacetamide]
50 to 70 | < 10 | CNC(=O)COc1cc2cc(Nc3nc(N4CCC(F)(CN5CCN(c6ccc7c(c6)C(=O)N(C6CCC(=O)NC6=O)C7=O)CC5)CC4)ncc3Cl)ccc2n(C)c1=O (centres unmarked) [compound 340, 2-{[6-({5-chloro-2-[4-({4-[2-(2,6-dioxopiperidin-3-yl)-1,3-dioxo-2,3-dihydro-1H-isoindol-5-yl]piperazin-1-yl}methyl)-4-fluoropiperidin-1-yl]pyrimidin-4-yl}amino)-1-methyl-2-oxo-1,2-dihydroquinolin-3-yl]oxy}-N-methylacetamide]
< 50 | 10 to 50 | CC[C@@H]1CN(c2ncc(Cl)c(Nc3ccc4c(c3)cc(OCC(=O)NC)c(=O)n4C(C)C)n2)C[C@@H](COc2ccc3c(c2)C(=O)N(C2CCC(=O)NC2=O)C3=O)O1 (stereo partly drawn) [compound 389, 2-{[6-({5-chloro-2-[(2S,6R)-2-({[2-(2,6-dioxopiperidin-3-yl)-1,3-dioxo-2,3-dihydro-1H-isoindol-5-yl]oxy}methyl)-6-ethylmorpholin-4-yl]pyrimidin-4-yl}amino)-2-oxo-1-(propan-2-yl)-1,2-dihydroquinolin-3-yl]oxy}-N-methylacetamide]
≥ 70 | < 10 | CNC(=O)COc1cc2cc(Nc3nc(N4CCC(OC5CC6(CCN(c7cccc8c7C(=O)N(C7CCC(=O)NC7=O)C8=O)CC6)C5)CC4)ncc3Cl)ccc2n(C(C)C)c1=O (centres unmarked) [compound 391, 2-{[6-({5-chloro-2-[4-({7-[2-(2,6-dioxopiperidin-3-yl)-1,3-dioxo-2,3-dihydro-1H-isoindol-4-yl]-7-azaspiro[3.5]nonan-2-yl}oxy)piperidin-1-yl]pyrimidin-4-yl}amino)-2-oxo-1-(propan-2-yl)-1,2-dihydroquinolin-3-yl]oxy}-N-methylacetamide]
≥ 70 | < 10 | CNC(=O)COc1cc2cc(Nc3nc(N4CCC[C@H](COc5cccc6c5C(=O)N(C5CCC(=O)NC5=O)C6=O)C4)ncc3Cl)ccc2n(CCC2CC2)c1=O (stereo partly drawn) [compound 334, 2-{[6-({5-chloro-2-[(3S)-3-({[2-(2,6-dioxopiperidin-3-yl)-1,3-dioxo-2,3-dihydro-1H-isoindol-4-yl]oxy}methyl)piperidin-1-yl]pyrimidin-4-yl}amino)-1-(2-cyclopropylethyl)-2-oxo-1,2-dihydroquinolin-3-yl]oxy}-N-methylacetamide]

same assay, conditions: class symbols A-D, read-out: EC50 (nM)*

DC50 [nM] | SMILES
50 to 100 | CNC(=O)COc1cc2cc(Nc3nc(N4CCC(OCCOc5ccc6c(c5)CN(C5CCC(=O)NC5=O)C6=O)CC4)ncc3Cl)ccc2n(C)c1=O (centres unmarked) [compound 71, 2-((6-((5-chloro-2-(4-(2-((2-(2,6-dioxopiperidin-3-yl)-1-oxoisoindolin-5-yl)oxy)ethoxy)piperidin-1-yl)pyrimidin-4-yl)amino)-1-methyl-2-oxo-1,2-dihydroquinolin-3-yl)oxy)-N-methylacetamide]
50 to 100 | CNC(=O)COc1cc2cc(Nc3nc(N4CCC(Cc5cn(CCOCCOc6ccc7c(c6)C(=O)N(C6CCC(=O)NC6=O)C7=O)nn5)CC4)ncc3Cl)ccc2n(C)c1=O (centres unmarked) [compound 113, 2-((6-((5-chloro-2-(4-((1-(2-(2-((2-(2,6-dioxopiperidin-3-yl)-1,3-dioxoisoindolin-5-yl)oxy)ethoxy)ethyl)-1H-1,2,3-triazol-4-yl)methyl)piperidin-1-yl)pyrimidin-4-yl)amino)-1-methyl-2-oxo-1,2-dihydroquinolin-3-yl)oxy)-N-methylacetamide]
> 100 | CNC(=O)COc1cc2cc(Nc3nc(N4CCC(c5cn(CCOCCOCCOCCOc6ccc7c(c6)C(=O)N(C6CCC(=O)NC6=O)C7=O)nn5)CC4)ncc3Cl)ccc2n(C)c1=O (centres unmarked) [compound 129, 2-((6-((5-chloro-2-(4-(1-(2-(2-(2-(2-((2-(2,6-dioxopiperidin-3-yl)-1,3-dioxoisoindolin-5-yl)oxy)ethoxy)ethoxy)ethoxy)ethyl)-1H-1,2,3-triazol-4-yl)piperidin-1-yl)pyrimidin-4-yl)amino)-1-methyl-2-oxo-1,2-dihydroquinolin-3-yl)oxy)-N-methylacetamide]
50 to 100 | CNC(=O)COc1cc2cc(Nc3nc(N4CCC(Cc5cn(CCOCC(=O)N[C@H](C(=O)N6C[C@H](O)C[C@H]6C(=O)N[C@@H](C)c6ccc(-c7scnc7C)cc6)C(C)(C)C)nn5)CC4)ncc3Cl)ccc2n(C)c1=O [compound 122, (2S,4R)-1-((S)-2-(2-(2-(4-((1-(5-chloro-4-((1-methyl-3-(2-(methylamino)-2-oxoethoxy)-2-oxo-1,2-dihydroquinolin-6-yl)amino)pyrimidin-2-yl)piperidin-4-yl)methyl)-1H-1,2,3-triazol-1-yl)ethoxy)acetamido)-3,3-dimethylbutanoyl)-4-hydroxy-N-((S)-1-(4-(4-methylthiazol-5-yl)phenyl)ethyl)pyrrolidine-2-carboxamide]
10 to 50 | CNC(=O)COc1cc2cc(Nc3nc(N4CCC(OCCOCCOc5ccc6c(c5)CN(C5CCC(=O)NC5=O)C6=O)CC4)ncc3Cl)ccc2n(C)c1=O (centres unmarked) [compound 61, 2-((6-((5-chloro-2-(4-(2-(2-((2-(2,6-dioxopiperidin-3-yl)-1-oxoisoindolin-5-yl)oxy)ethoxy)ethoxy)piperidin-1-yl)pyrimidin-4-yl)amino)-1-methyl-2-oxo-1,2-dihydroquinolin-3-yl)oxy)-N-methylacetamide]
> 100 | CNC(=O)COc1cc2cc(Nc3nc(N4CCC(OCCOCCOCCOCC(=O)N[C@H](C(=O)N5C[C@H](O)C[C@H]5C(=O)NCc5ccc(-c6scnc6C)cc5)C(C)(C)C)CC4)ncc3Cl)ccc2n(C)c1=O [compound 51, (2S,4R)-1-((S)-2-(tert-butyl)-14-((1-(5-chloro-4-((1-methyl-3-(2-(methylamino)-2-oxoethoxy)-2-oxo-1,2-dihydroquinolin-6-yl)amino)pyrimidin-2-yl)piperidin-4-yl)oxy)-4-oxo-6,9,12-trioxa-3-azatetradecanoyl)-4-hydroxy-N-(4-(4-methylthiazol-5-yl)benzyl)pyrrolidine-2-carboxamide]
> 100 | CNC(=O)COc1cc2cc(Nc3nc(N4CCC(c5ccc(OCCCOCCOCCOc6ccc7c(c6)CN(C6CCC(=O)NC6=O)C7=O)cc5)CC4)ncc3Cl)ccc2n(C)c1=O (centres unmarked) [compound 89, 2-((6-((5-chloro-2-(4-(4-(3-(2-(2-((2-(2,6-dioxopiperidin-3-yl)-1-oxoisoindolin-5-yl)oxy)ethoxy)ethoxy)propoxy)phenyl)piperidin-1-yl)pyrimidin-4-yl)amino)-1-methyl-2-oxo-1,2-dihydroquinolin-3-yl)oxy)-N-methylacetamide]

SMILES | DC50 [nM]
CNC(=O)COc1cc2cc(Nc3nc(N4CCC(OCCCCOc5ccc6c(c5)CN(C5CCC(=O)NC5=O)C6=O)CC4)ncc3Cl)ccc2n(C)c1=O (centres unmarked) [compound 142, 2-((6-((5-chloro-2-(4-(4-((2-(2,6-dioxopiperidin-3-yl)-1-oxoisoindolin-5-yl)oxy)butoxy)piperidin-1-yl)pyrimidin-4-yl)amino)-1-methyl-2-oxo-1,2-dihydroquinolin-3-yl)oxy)-N-methylacetamide] | > 100
